Test results reported in US12102063B2 (SYNEXIS LLC, priority 2017, dated 2024).
Where “and” joins values, the source holds several entries; their conditions need not be identical. Equal entries are not always repeated. Where two headings read alike, the source gives them in different places.

Test system: eggs and hatched chicks
[1] = Day 7 DHP+, summary of replicates stored 7 days
[2] = Delta Avg. Trtd versus Avg. Untrd, egg storage 4 to 7 days
[3] = Mean / Avg. Trtd, 22 DHP replicates, egg storage 4 to 7 days
[4] = with DHP, egg storage 4 days, single replicate of 90 eggs
[5] = with DHP, egg storage 5 days, single replicate of 90 eggs
[6] = with DHP, egg storage 6 days, single replicate of 90 eggs
[7] = with DHP, egg storage 7 days, single replicate of 90 eggs

Experimental: A total of 22 replicates of 90 eggs each of age matched, flock matched eggs are stored prior to incubation for 4 to 7 days in an on-site egg room at about 20° C. […] The paired replicates are then incubated to hatching under standard commercial conditions. At hatching, the following parameters are assessed and recorded: Total Hatchability (%), Fertile Hatchability (%),% Infertile, Early dead (%), Mid dead (%), Late dead (%), Cracked (%), Contaminated (%), Live pip (%), Dead pip (%), Cull dead chick (%), Chick Weight (g), Chick A (%), and Chick B (%).

With OO [DHP, dry hydrogen peroxide] the Dead pip [1] was 0.00%, the Mid dead [1] was 0.56% and the “% Infertile, delta” value (Day 7 Delta, DHP+ versus DHP−) was 0.00%. For the same molecule, the “Chick Weight, delta” value (Day 7 Delta, DHP+ versus DHP−) was 1.10 g, the “Cont, delta” value (Day 7 Delta, DHP+ versus DHP−) was −0.56% and the “Crack, delta” value (Day 7 Delta, DHP+ versus DHP−) was 0.00%. The “Cull dead cks, delta” value (Day 7 Delta, DHP+ versus DHP−) was 0.56%, the “Dead pip, delta” value (Day 7 Delta, DHP+ versus DHP−) was 0.00% and the “Fertile Hatchability, delta” value (Day 7 Delta, DHP+ versus DHP−) was 0.56%. The “Late dead, delta” value (Day 7 Delta, DHP+ versus DHP−) was 0.55%, the “Mid dead, delta” value (Day 7 Delta, DHP+ versus DHP−) was 0.56% and the “Total Hatchability, delta” value (Day 7 Delta, DHP+ versus DHP−) was 0.56%. The “% Infertile, delta” value [2] was 1.00%, the “Chick A, delta” value [2] was 0.23% and the “Chick B, delta” value [2] was −0.23%. The “Chick Weight, delta” value [2] was 0.77 g, the “Cont, delta” value [2] was −0.05% and the “Crack, delta” value [2] was 0.05%. For the same molecule, the “Cull dead cks, delta” value [2] was −0.10%, the “Dead pip, delta” value [2] was −0.30% and the “Early dead, delta” value [2] was −1.70%. The “Late dead, delta” value [2] was −0.97%, the “Live pip, delta” value [2] was 0.35% and the “Mid dead, delta” value [2] was 0.45%. It also gave a Cont [3] of 0.00%, a Crack [3] of 0.15% and a Cull dead cks [3] of 0.05%. It also gave a Dead pip [3] of 0.05%, a Live pip [3] of 0.61% and a Mid dead [3] of 0.61%. The “improvement in number of A grade chicks” value (all storage times) was 0.23%, the “increase of fertile hatchability vs untreated” value (an additional day (five days)) was 3.2% and the “increase of total hatchability vs untreated” value (shortened to “increase of total hatchability”) (an additional day (five days)) was 1.3%. The “increased weight vs untreated” value (an additional day (five days)) was 0.85 grams, the “DHP gas treated eggs observed to be contaminated” value (at day 7) was “none” and the “decrease of number of early deaths” value (death during incubation) was “about 1.7%”. For the same molecule, the mid cycle deaths (death during incubation) was “decreased”, the “change of fertile hatchability vs untreated” value (eggs treated four days) was “+0.12” and the “change of total hatchability vs untreated” value (eggs treated four days) was −0.64%. The “increased weight vs untreated” value (eggs treated four days) was “+0.89 g”, the “increase of fertile hatchability vs untreated” value (seven day storage) was 0.56% and the “increase of total hatchability” value (seven day storage) was 0.56%. For the same molecule, the “increased weight vs untreated” value (seven day storage) was 1.10 grams, the “increase of fertile hatchability vs untreated” value (six days) was 4.67% and the “increase of total hatchability” value (six days) was 2.96%. The “increased weight vs untreated” value (six days) was 0.49 grams, the “number of live pip eggs” value (vs untreated) was “increases” and the “% Infer” value [4] was 0.00%. The “Chick B” value [4] was 2.40% and 4.80% and 3.70%, the Cont [4] was 0.00% and the Crack [4] was 0.00%. It also gave a Cull dead [4] of 0.00%, a Dead pip [4] of 0.00% and a Late dead [4] of 0.00%. For the same molecule, the Live pip [4] was 0.00%, the Mid dead [4] was 0.00% and the “% Infer” value [5] was 10.00%. For the same molecule, the “Chick A” value [5] was 100.0%, the Cont [5] was 0.00% and the Crack [5] was 0.00%. For the same molecule, the Cull dead [5] was 0.00%, the Dead pip [5] was 0.00% and the Late dead [5] was 0.00%. For the same molecule, the Live pip [5] was 0.00%, the Mid dead [5] was 0.00% and the “Total Hatchblty” value [5] was 90.00%. For the same molecule, the “% Infer” value [6] was 0.00%, the “Chick B” value [6] was 4.80% and the Cont [6] was 0.00%. It also gave a Crack [6] of 0.00%, a Cull dead [6] of 0.00% and a Dead pip [6] of 0.00%. For the same molecule, the Late dead [6] was 0.00%, the Live pip [6] was 0.00% and the Mid dead [6] was 0.00%. The “Total Hatchblty” value [6] was 90.00%, the “% Infer” value [7] was 0.00% and the “Check Weight” value [7] was 44.94 g and 44.41 g. It also gave a Cont [7] of 0.00%, a Crack [7] of 0.00% and a Cull dead [7] of 0.00%. The Dead pip [7] was 0.00%, the Live pip [7] was 0.00% and the Mid dead [7] was 0.00%.
